Counter-ions that a name gives are not always drawn.
Experiment: Crystalline form of atrasentan hydrochloride found in solvents over time (conversion to Form 2) at 25° C.
Format: physicochemical
Design: key: 1, 2 and 3 mean Atrasentan Hydrochloride Crystalline Forms 1, 2 and 3, respectively.; 1, 2 and 3 mean Atrasentan Hydrochloride Crystalline Forms 1, 2 and 3, respectively.; 1, 2 and 3 mean Atrasentan Hydrochloride Crystalline Forms 1, 2 and 3, respectively
Method: Examples of representative solvents that are useful for converting a particular crystalline form of atrasentan hydrochloride to Atrasentan Hydrochloride Crystalline Form 2 having substantial crystalline purity at 25° C. are shown in TABLE 2.

CCCCN(CCCC)C(=O)CN1C[C@H](c2ccc3c(c2)OCO3)[C@@H](C(=O)O)[C@@H]1c1ccc(OC)cc1 [atrasentan hydrochloride, (2R,3R,4S)-(+)-2-(4-methoxyphenyl)-4-(1,3-benzodioxol-5-yl)-1-(N,N-di(n-butyl)aminocarbonylmethyl)pyrrolidine-3-carboxylic acid]
crystalline form present (0.1M HCl, week 1): 1
crystalline form present (0.1M HCl, week 2): 1
crystalline form present (0.1M HCl, week 4): 1
crystalline form present (0.1M HCl, week 9): 2
crystalline form present (0.1M HCl, week 16): 2
crystalline form present (IPA (isopropyl alcohol), week 1): 1
crystalline form present (IPA (isopropyl alcohol), week 2): 1
crystalline form present (IPA (isopropyl alcohol), week 4): 2
crystalline form present (IPA (isopropyl alcohol), week 9): 2
crystalline form present (IPA (isopropyl alcohol), week 16): 2
crystalline form present (PEG 400 (polyethylene glycol), week 1): 1
crystalline form present (PEG 400 (polyethylene glycol), week 2): 1
crystalline form present (PEG 400 (polyethylene glycol), week 4): 1
crystalline form present (PEG 400 (polyethylene glycol), week 9): 1
crystalline form present (PEG 400 (polyethylene glycol), week 16): 2
crystalline form present (acetone, week 1): 2
crystalline form present (acetone, week 2): 2
crystalline form present (acetone, week 4): 2
crystalline form present (acetone, week 9): 2
crystalline form present (acetone, week 16): 2
crystalline form present (ethanol, week 1): 2
crystalline form present (ethanol, week 2): 2
crystalline form present (ethanol, week 4): 2
crystalline form present (ethanol, week 9): 2
crystalline form present (ethanol, week 16): 2
crystalline form present (ethyl acetate, week 1): 1
crystalline form present (ethyl acetate, week 2): 1
crystalline form present (ethyl acetate, week 4): 1
crystalline form present (ethyl acetate, week 9): 2
crystalline form present (ethyl acetate, week 16): 2
crystalline form present (nitromethane, week 1): 3
crystalline form present (nitromethane, week 2): 3
crystalline form present (nitromethane, week 4): 3
crystalline form present (nitromethane, week 9): 3
crystalline form present (nitromethane, week 16): 2

Reference: patent US20080132710A1, “ATRASENTAN HYDROCHLORIDE CRYSTALLINE FORM 2” (ABBOTT LABORATORIES, priority 2006, published 2008)
